Assay results taken from patent US20230049917A1, “Pharmaceutical Composition of CASR Modulators and Methods and Uses Thereof” (Lupin Limited, priority 2019, published 2023).
Read-outs that look alike come from different tables or passages of the source.

Columns and labels:
[1] = cited from earlier work
[2] = Pharmacokinetic analysis after oral administration of the formulation to rats; assay type: in vivo; details: male, Sprague Dawley, rat, 5 mg/kg
Experimental: Male Sprague Dawley Rats (weight 225±25 gm; aged 8 to 10 weeks) were administered orally with the formulation. Each of the tested compounds was dosed at 5 mg/kg at a dose volume of 1 mL/kg. Blood samples were collected at time points 0.25, 0.5, 1, 2, 4, 6, 8 and 24 hours and analyzed the plasma concentrations of administered compound and calculated PK parameters. The plasma concentrations of the tested compounds were measured by liquid chromatography with tandem mass spectrometry (LCMS-MS) using […] extraction method. The plasma concentration-time data was subjected to Non-Compartmental Analysis using Phoenix WinNonlin® (Version 5.3) software to assess the pharmacokinetic parameters. Peak plasma concentrations (Cmax) and time for the peak plasma concentrations (Tmax) were the observed values. The area under the concentration time curve (AUC) was calculated by linear trapezoidal rule.

[3] = CKD patients not on dialysis, week 32

| SMILES | AUC(0-t) ([2]; in vivo, po) [µM·h] | Cmax ([2]; in vivo, po) [µM] | Tmax ([2]; in vivo, po) [min] | other results |
| --- | --- | --- | --- | --- |
| C[C@@H](NCCCc1cccc(C(F)(F)F)c1)c1cccc2ccccc12 [Cinacalcet] |  |  |  | phosphorus levels [1, 3]: 4.5 ± 1.0 mg/dL; phosphorus levels, change [1, 3]: +21.4%; serum calcium levels, frequently observed ([1]; patients with CKD not on dialysis): < 8.4 mg/dL |
| C[C@@H](NC[C@H]1CN(c2cc(C(=O)O)cc(C(F)(F)F)c2)CCO1)c1cccc2ccccc12 [Compound 1, 3-((S)-2-((((R)-1-(naphthalen-1-yl)ethyl)amino)methyl)morpholino)-5-(trifluoromethyl)benzoic acid] |  |  |  | AUC(0-t) ([2]; oral, dose volume 1 mL/kg, plasma, sampling to 24 hours, read-out: AUC0-1): 7.3 ± 0.5 µM·h; Cmax ([2]; oral, plasma, read-out: Cmax): 3.6 ± 1 µM; Tmax ([2]; oral, plasma, read-out: Tmax): 15 to 60 min |
| Cc1ccc(N2C[C@H](CCN[C@H](C)c3cccc4ccccc34)Oc3ccccc32)cc1C(=O)O.Cl [Compound 2, 2-methyl-5-((S)-2-(2-(((R)-1-(naphthalen-1-yl)ethyl)amino)ethyl)-2H-benzo[b][1,4]oxazin-4(3H)-yl)benzoic acid] | 16 ± 3 | 4.9 ± 3 | 15 |  |
| COc1cc([C@@H](C)NC[C@@H]2Cc3ccccc3[C@H](c3ccc(C)c(C(=O)O)c3C)C2)ccc1F.Cl [Compound 4, 3-((1R,3S)-3-((((R)-1-(4-fluoro-3-methoxyphenyl)ethyl)amino)methyl)-1,2,3,4-tetrahydronaphthalen-1-yl)-2,6-dimethylbenzoic acid] | 5.5 ± 1 | 1.5 ± 1 | 30 to 120 |  |
